Experimental data as given in US20180170941A1 (priority 2016, published 2018).

What follows are molecules tested against T1, α5β3γ2 GABAA receptors (Ltk cell membranes) (Homo sapiens, UniProt P18507+P31644) (assay: Binding activity of test compounds on GABAAR: inhibition of [3H]Ro15-1788 binding). Details: GABA α5 Binding Ki Values, inhibition of [3H]Ro15-1788 binding; reported as ranges.
T1 construct: membranes
T1 sequence (P31644 32-462): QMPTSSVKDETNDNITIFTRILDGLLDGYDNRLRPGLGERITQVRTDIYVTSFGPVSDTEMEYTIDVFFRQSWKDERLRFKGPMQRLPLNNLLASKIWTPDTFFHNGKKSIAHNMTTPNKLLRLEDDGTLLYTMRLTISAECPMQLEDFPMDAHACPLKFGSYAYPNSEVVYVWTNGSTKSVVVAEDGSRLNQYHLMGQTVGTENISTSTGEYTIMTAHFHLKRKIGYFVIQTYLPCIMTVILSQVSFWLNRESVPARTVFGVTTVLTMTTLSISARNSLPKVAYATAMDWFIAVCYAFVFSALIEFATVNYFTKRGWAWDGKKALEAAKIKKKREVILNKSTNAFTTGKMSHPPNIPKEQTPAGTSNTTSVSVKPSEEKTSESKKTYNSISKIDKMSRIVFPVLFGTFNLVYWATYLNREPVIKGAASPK
T1 sequence (P28472 26-473 partner): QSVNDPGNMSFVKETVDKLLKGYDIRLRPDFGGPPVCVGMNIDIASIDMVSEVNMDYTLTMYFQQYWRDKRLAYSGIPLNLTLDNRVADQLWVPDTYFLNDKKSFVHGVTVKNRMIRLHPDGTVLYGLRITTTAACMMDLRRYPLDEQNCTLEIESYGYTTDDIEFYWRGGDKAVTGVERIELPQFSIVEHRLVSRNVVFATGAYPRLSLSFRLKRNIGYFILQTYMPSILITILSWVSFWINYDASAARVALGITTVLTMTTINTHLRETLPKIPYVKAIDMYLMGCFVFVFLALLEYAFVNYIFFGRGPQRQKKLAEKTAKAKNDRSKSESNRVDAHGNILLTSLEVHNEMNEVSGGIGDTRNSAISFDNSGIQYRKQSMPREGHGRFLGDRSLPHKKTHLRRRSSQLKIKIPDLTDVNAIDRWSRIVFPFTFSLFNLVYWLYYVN
T1 sequence (P18507 40-475): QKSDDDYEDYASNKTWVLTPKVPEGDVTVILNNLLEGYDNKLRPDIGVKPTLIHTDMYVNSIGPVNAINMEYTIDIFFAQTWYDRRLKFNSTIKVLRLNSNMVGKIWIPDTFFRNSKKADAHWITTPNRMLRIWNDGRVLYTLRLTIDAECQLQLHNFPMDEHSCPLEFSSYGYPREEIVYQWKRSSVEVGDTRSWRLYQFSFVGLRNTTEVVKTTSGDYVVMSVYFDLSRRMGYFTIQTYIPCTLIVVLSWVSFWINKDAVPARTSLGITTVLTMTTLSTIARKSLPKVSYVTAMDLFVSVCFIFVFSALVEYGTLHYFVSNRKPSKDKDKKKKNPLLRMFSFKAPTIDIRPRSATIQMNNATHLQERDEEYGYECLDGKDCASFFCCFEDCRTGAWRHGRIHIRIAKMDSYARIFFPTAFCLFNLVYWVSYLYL
Experimental: Tissue culture and Membrane Preparation: The binding was performed on Ltk cells stably expressing GABAA receptors: α1β1γ2, α2β3γ2, α3β3γ2 and α5β3γ2 (provided by Merck Co., NJ, USA). Cells were seeded in 100 mm culture plates in DMEM/F12 medium containing 10% serum and antibiotics in 5% CO2 and allowed to grow for 1-2 days. GABAAR expression was then induced by dexamethasone as follows: 0.5 μM for 1 day for α5 containing and 2μM for 3 days for α1, α2 and α3 containing GABAARs. After induction, cells were collected by scraping into Dulbecco's Phosphate buffered saline (DPBS, pH 7.4, Invitrogen, Carlsbad, Calif., USA) and centrifuged at 150×g for 10 min. The pellet was washed twice by re-suspension and centrifugation. The cell pellets from at least 5 different preps were combined, suspended in the binding assay buffer (50 mM KH2P4; 1 mM EDTA; 0.2 M KCl, pH 7.4) and membranes prepared by sonication (3-5 times, 30 sec) using Branson Sonifier 150 (G.Heinmann, Germany). Protein content was determined using BCA assay (Bio-Rad Labs, Reinach, Switzerland) with Bovine Serum Albumin (Sigma Aldrich, St. Louis, Mo., USA) as the standard. Aliquots were prepared and stored at −20° C. for further use in binding assays.
Ligand Binding: Saturation binding curves were obtained by incubating membranes with increasing concentrations (0.01-8 nM) of [^3H]Ro15-1788 (Flumazepil, 75-85 Ci/mmol, PerkinElmer, MA, USA), with nonspecific binding measured in the presence of 10 μM diazepam.
All binding assays were performed for 1 h at 4° C. in assay buffer. The total assay volume was 0.5 ml containing 0.2 mg/ml protein for α5 and 0.4 mg/ml for α1, α2, and α3 containing GABAAR membranes. Incubations were terminated by filtration through GF/B filters using a 24-Cell Harvestor (Brandel, Gaithersburg, Md., USA) followed by 3 washes with ice-cold assay buffer. Filters were transferred to scintillation vials, 5 ml scintillation liquid added, vortex-mixed and kept in dark. Next day, radioactivity was obtained using a scintillation counter (Beckman Coulter, Brea, Calif., USA). All assays were performed in triplicate.
Data Analyses: Saturation and inhibition curves were obtained using GraphPad Prism software (GraphPad Software, Inc., CA, USA).
With CCOC(=O)c1ncn2c1Cc1c(C)nnn1-c1cc(OC)ccc1-2 [Compound 1] the Ki was under 100 nM.
CCOC(=O)c1ncn2c1Cc1c(C)nnn1-c1cc(F)ccc1-2 [Compound 2] showed a Ki of under 100 nM.
With CCOC(=O)c1ncn2c1Cc1c(C)nnn1-c1ccccc1-2 [Compound 3] the Ki was under 100 nM.
CCOC(=O)c1ncn2c1Cc1c(Cc3ccccc3)nnn1-c1cc(OC)ccc1-2 [Compound 4] showed a Ki of under 100 nM.
With CCOC(=O)c1ncn2c1Cc1c(Cc3ccccc3)nnn1-c1ccccc1-2 [Compound 5] the Ki was under 100 nM.
For CCOC(=O)c1ncn2c1Cc1c(Cc3ccccc3)nnn1-c1cc(F)ccc1-2 [Compound 6], the Ki was under 100 nM.
CCOC(=O)c1ncn2c1Cc1c(C)cnn1-c1cc(OC)ccc1-2 [Compound 7] was tested, and the Ki was under 100 nM.
Work on CCOC(=O)c1ncn2c1Cc1c(Cc3ccccc3)cnn1-c1cc(OC)ccc1-2 [Compound 8] yielded a Ki of under 100 nM.
Work on CCOC(=O)c1ncn2c1Cc1c(COc3ccccc3)nnn1-c1cc(OC)ccc1-2 [Compound 9] yielded a Ki of under 100 nM.
CCOC(=O)c1ncn2c1Cc1c(COc3ccc(F)cc3)nnn1-c1cc(OC)ccc1-2 [Compound 10] gave a Ki of under 100 nM.
With CCOC(=O)c1ncn2c1Cc1c(COc3cccc(OC)c3)nnn1-c1cc(OC)ccc1-2 [Compound 11] the Ki was under 100 nM.
CCOC(=O)c1ncn2c1Cc1c(COc3ccc(C)cc3C)nnn1-c1cc(OC)ccc1-2 [Compound 12] gave a Ki of under 100 nM.
CCOC(=O)c1ncn2c1Cc1c(Cc3ccc(C)cc3)nnn1-c1cc(F)ccc1-2 [Compound 44] showed a Ki of under 100 nM.
Work on CCOC(=O)c1ncn2c1Cc1c(Cc3ccc(Cl)cc3)nnn1-c1cc(F)ccc1-2 [Compound 45] yielded a Ki of under 100 nM.
With CCOC(=O)c1ncn2c1Cc1c(Cc3ccc(F)cc3)nnn1-c1cc(F)ccc1-2 [Compound 46] the Ki was under 100 nM.
CCOC(=O)c1ncn2c1Cc1c(Cc3ccc(Cl)cc3)nnn1-c1ccccc1-2 [Compound 47] was tested, and the Ki was under 100 nM.
CCOC(=O)c1ncn2c1Cc1c(CN3CCCC3)nnn1-c1cc(OC)ccc1-2 [Compound 48] showed a Ki of under 100 nM.
CCOC(=O)c1ncn2c1Cc1c(CN3CCOCC3)nnn1-c1cc(OC)ccc1-2 [Compound 49] showed a Ki of under 100 nM.
Molecule CCOC(=O)c1ncn2c1Cc1c(CN(CC)CC)nnn1-c1cc(OC)ccc1-2 [Compound 50] has a Ki of 100 to 1000 nM.
In the case of CCOC(=O)c1ncn2c1Cc1c(CN(C)Cc3ccccc3)nnn1-c1cc(OC)ccc1-2 [Compound 51], the Ki is reported as under 100 nM.
CCOC(=O)c1ncn2c1Cc1c(Cc3cccc(Cl)c3)nnn1-c1cc(OC)ccc1-2 [Compound 52] gave a Ki of under 100 nM.
Work on CCOC(=O)c1ncn2c1Cc1c(Cc3cccc(C#N)c3)nnn1-c1cc(OC)ccc1-2 [Compound 53] yielded a Ki of under 100 nM.
CCOC(=O)c1ncn2c1Cn1c(COc3ccccc3)nnc1-c1cc(OC)ccc1-2 [Compound 55] was tested, and the Ki was under 100 nM.
In the case of CCOC(=O)c1ncn2c1Cn1c(COc3ccc(F)cc3)nnc1-c1cc(OC)ccc1-2 [Compound 56], the Ki is reported as under 100 nM.
Molecule CCOC(=O)c1ncn2c1Cc1c(Cc3ccccc3)nnn1-c1cc(C)ccc1-2 [Compound 101] has a Ki of under 100 nM.
With CCOC(=O)c1ncn2c1Cc1c(C)nnn1-c1cc(C)ccc1-2 [Compound 102] the Ki was under 100 nM.
Work on CCOC(=O)c1ncn2c1Cn1c(COC)nnc1-c1cc(OC)ccc1-2 [Compound 103] yielded a Ki of under 100 nM.
CCOC(=O)c1ncn2c1Cn1c(Oc3ccccc3)nnc1-c1cc(OC)ccc1-2 [Compound 104] was tested, and the Ki was under 100 nM.
Work on CCOC(=O)c1ncn2c1Cn1c(Oc3cccc(OC)c3)nnc1-c1cc(OC)ccc1-2 [Compound 105] yielded a Ki of under 100 nM.
For CCOC(=O)c1ncn2c1Cn1c(Br)nnc1-c1cc(OC)ccc1-2 [Compound 106], the Ki was under 100 nM.
CCOC(=O)c1ncn2c1Cc1c(COc3ccccc3)nnn1-c1cc(F)ccc1-2 [Compound 107] was tested, and the Ki was under 100 nM.
In the case of CCOC(=O)c1ncn2c1Cc1c(Cc3ccccc3Cl)nnn1-c1cc(OC)ccc1-2 [Compound 108], the Ki is reported as under 100 nM.
Molecule Cc1noc(-c2ncn3c2Cc2c(Cc4ccccc4)nnn2-c2cc(F)ccc2-3)n1 [Compound 109] has a Ki of under 100 nM.
Cc1noc(-c2ncn3c2Cc2c(C)nnn2-c2cc(F)ccc2-3)n1 [Compound 110] gave a Ki of 100 to 1000 nM.
